# Measurements from patent US6306860A, “2,5-pyridinedicarboxylic acid derivatives” (Dong Wha Pharm. Inc. Co., Ltd., priority 1998, dated 2001).
# Counter-ions that a name gives are not always drawn.
# What was measured:
# [1] = target: T1, HBV polymerase (Hepatitis B virus genotype D subtype ayw, UniProt P03156); assay: Inhibitory activities against HBV polymerase (reverse transcriptase activity) in vitro; type: biochemical; conditions: read-out: Inhibitory activity of HBV-RT (%); for inhibition at 0.01 µg/mL: 0.01 μg/ml; for inhibition at 0.1 µg/mL: 0.1 μg/ml; for inhibition at 1 µg/mL: 1 μg/ml
# T1 construct: made in house; host or cells: E. coli
# T1 sequence (P03156 whole entry): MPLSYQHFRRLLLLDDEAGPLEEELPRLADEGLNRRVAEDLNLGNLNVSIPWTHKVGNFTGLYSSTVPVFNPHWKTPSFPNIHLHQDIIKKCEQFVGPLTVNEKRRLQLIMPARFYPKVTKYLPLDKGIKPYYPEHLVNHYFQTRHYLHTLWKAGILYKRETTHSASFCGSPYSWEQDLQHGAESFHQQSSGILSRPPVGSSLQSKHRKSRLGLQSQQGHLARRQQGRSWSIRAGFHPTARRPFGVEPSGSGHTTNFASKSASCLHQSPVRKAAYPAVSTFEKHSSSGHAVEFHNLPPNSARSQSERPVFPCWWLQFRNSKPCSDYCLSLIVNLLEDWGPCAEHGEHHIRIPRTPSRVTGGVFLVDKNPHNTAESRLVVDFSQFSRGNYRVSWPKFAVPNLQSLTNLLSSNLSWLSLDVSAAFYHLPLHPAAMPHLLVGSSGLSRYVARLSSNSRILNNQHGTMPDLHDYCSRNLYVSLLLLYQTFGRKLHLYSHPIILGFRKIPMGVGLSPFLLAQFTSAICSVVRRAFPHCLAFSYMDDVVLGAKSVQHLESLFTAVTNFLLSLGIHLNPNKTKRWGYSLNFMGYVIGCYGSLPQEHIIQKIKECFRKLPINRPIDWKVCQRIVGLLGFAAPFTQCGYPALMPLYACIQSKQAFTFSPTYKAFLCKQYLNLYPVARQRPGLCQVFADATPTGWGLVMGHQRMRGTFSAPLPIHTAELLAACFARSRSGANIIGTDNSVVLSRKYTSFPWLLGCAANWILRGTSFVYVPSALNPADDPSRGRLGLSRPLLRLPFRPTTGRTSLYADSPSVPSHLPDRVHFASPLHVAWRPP
# From the text: Experiment 1:Inhibitory Activities Against HBV Polymerase in vitro
# Recently, the inventors of the present invention have produced a recombinant HBV polymerase that is expressed from E.coli transformant, measured its enzyme activity and filed patent applications threrof [Korean Pat. Appl. Nos. 94-3918 and 96-33998].
# The inventors have also established a method of measuring the reverse transcriptase activity of HBV polymerase in vitro. The fundamental principle is the same as the ELISA method, and after reacting the substrate with biotin- and DIG-modified nucleotide, a method of recognizing the polymerized substrate as anti-DIG antibody with peroxidase was used.
# 20 μl of HBV polymerase, 20 μl of reaction mixture and 20 μl of test compound was mixed and reacted at 14° C.~30° C. for 18~24 hours. Then, the inhibitory effect of the test compound against reverse transcriptase activity in the HBV polymerase was examined, compared with the results of control tests without the test compound.
# [2] = target: T2, HIV reverse transcriptase (Human immunodeficiency virus type 1 group M subtype B, UniProt P04585); assay: In vitro inhibition test against HIV reverse transcriptase; type: biochemical; conditions: read-out: Inhibitory activity of HIV-RT (%); for inhibition at 0.1 µg/mL: 0.1 μg/ml; for inhibition at 1 µg/mL: 1 μg/ml
# T2 construct: purchased Boehringer Mannheim
# Protocol: Experiment 2: The in vitro Inhibition Test Against HIV Reverse Transcriptase
# The inhibitory activity in vitro was measured using a non-radioactive reverse transcriptase assay Kit (Boehringer Mannheim).
# At first, 20 μl(40 ng) of HIV-RT was added to the wells, coated with streptavidin and with the addition of 20 μl reaction mixture containing template/primer hybrid poly(A)/oligo(dT)15 and DIG-(digoxigenin)-dUTP, biotin-dUTP and TTP, 20 μl of test compound was added and reacted at 37° C. for 1 hour. The control without test compound was used for the comparison of related activity. Since DNA containing nucleotide labeled with digoxigenin and biotine was prepared by the action of HIV-RT, it was combined with streptavidin coated at the bottom of the wells. After the reaction was completed, remaining impurities were removed by washing each well with 250 μl buffer solution (pH 7.0) for 30 seconds 5 times and with the addition of 200 μl anti-DIG-POD antibody, the mixture was reacted at 37° C. for 1 hour. For the removal of remaining impurities again, the reacting solution was washed with a buffer solution and with the addition of 200 μl ABTS™ each, a substrate of POD(peroxidase), the solution was reacted at room temperature for 30 minutes. The absorbance was read by ELISA reader at 405 nm for the assay of reverse transcriptase activity and its inhibition activity.
SMILES,inhibition at 0.01 µg/mL [1],inhibition at 0.1 µg/mL [1],inhibition at 1 µg/mL [1],inhibition at 0.1 µg/mL [2],inhibition at 1 µg/mL [2]
"CC(C)Nc1cccnc1N1CCN(C(=O)c2ccc(C(=O)Nc3cnccn3)cn2)CC1 [Exam. 72, 6-[1-[3-(isopropylamino)-2-pyridyl]piperazin-4-yl-carbonyl]-N-(pyrazine-2-yl)nicotinamide]",16%,53%,64%,66%,83%
"O=C(NCCN1CCOCC1)c1ccc(C(=O)N2CCN(CCO)CC2)nc1 [Exam. 102, 6-[1-(2-hydroxyethyl)piperazin-4-yl-carbonyl]-N-[2-(morpholin-4-yl)-ethyl]nicotinamide.HCl]",32%,56%,70%,25%,40%
"CC(C)Nc1cccnc1N1CCN(C(=O)c2ccc(C(=O)NCc3ccco3)cn2)CC1 [Exam. 79, N-(2-Furylmethyl)-6-[1-[3-(isopropylamino)-2-pyridyl]piperazin-4-yl-carbonyl]nicotinamide.HCl]",54%,63%,78%,20%,54%
"CC(C)Nc1cccnc1N1CCN(C(=O)c2ccc(C(=O)NCc3ccncc3)cn2)CC1 [Exam. 77, 6-[1-[3-(isopropylamino)-2-pyridyl]piperazin-4-yl-carbonyl]-N-(4-pyridylmethyl)nicotinamide]",39%,65%,79%,59%,79%
"CC(C)Nc1cccnc1N1CCN(C(=O)c2ccc(C(=O)NCCc3cccs3)cn2)CC1 [Exam. 81, 6-[1-[3-(isopropylamino)-2-pyridyl]piperazin-4-yl-carbonyl]-N-[2-(2-thienyl)ethyl]nicotinamide]",44%,60%,80%,54%,75%
"CC(C)Nc1cccnc1N1CCN(C(=O)c2ccc(C(=O)NC(CO)CO)cn2)CC1 [Exam. 13, 5-[N-[Bis(hydroxymethyl)methyl]carbamoyl]-2-[1-[3-(isopropylamino)-2-pyridyl]piperazin-4-yl-carbonyl]pyridine]",51%,56%,72%,61%,80%
"COCC(C)NC(=O)c1ccc(C(=O)N2CCN(c3ncccc3NC(C)C)CC2)nc1 (stereo not drawn) [Exam. 43, 2-[1-[3-(isopropylamino)-2-pyridyl]piperazin-4-yl-carbonyl]-5-[N-(2-methoxy-1-methylethyl)carbamoyl]pyridine]",50%,61%,68%,44%,56%
"Cc1cc(NC(=O)c2ccc(C(=O)N3CCN(c4ncccc4NC(C)C)CC3)nc2)no1 [Exam. 67, 6-[1-[3-(isopropylamino)-2-pyridyl]piperazin-4-yl-carbonyl]-N-(5-methylisoxazol-3-yl)nicotinamide]",25%,50%,72%,30%,58%
"CCNc1cccnc1N1CCN(C(=O)c2ccc(C(=O)NC(C)C)cn2)CC1 [Exam. 25, 2-[1-[3-(ethylamino)-2-pyridyl]piperazin-4-yl-carbonyl]-5-(N-isopropylcarbamoyl)pyridine]",54%,67%,85%,52%,75%
"COCCN(CCOC)C(=O)c1ccc(C(=O)N2CCN(c3ncccc3NC(C)C)CC2)nc1 [Exam. 42, 5-[N,N-bis(2-methoxyethyl)carbamoyl]-2-[1-[3-(isopropylamino)-2-pyridyl]piperazin-4-yl-carbonyl]pyridine.HCl]",15%,52%,70%,20%,54%
"COCCCNC(=O)c1ccc(C(=O)N2CCN(c3ncccc3NC(C)C)CC2)nc1 [Exam. 45, 2-[1-[3-(isopropylamino)-2-pyridyl]piperazin-4-yl-carbonyl]-5-[N-(3-methoxypropyl)carbamoyl]pyridine]",28%,53%,63%,47%,68%
"CCNC(=O)c1ccc(C(=O)N2CCN(CCO)CC2)nc1 [Exam. 89, N-ethyl-6-[1-(2-hydroxyethyl)piperazin-4-yl-carbonyl]nicotinamide.HCl]",35%,50%,68%,35%,62%
"CC(C)Nc1cccnc1N1CCN(C(=O)c2ccc(C(=O)NCCCN3CCCC3=O)cn2)CC1 [Exam. 58, 2-[1-[3-(isopropylamino)-2-pyridyl]piperazin-4-yl-carbonyl]-5-[N-[3-(2-pyrrolidinon-1-yl)propyl]carbamoyl]pyridine.HCl]",63%,72%,84%,45%,63%
Cc1ncc(CO)c(CNC(=O)c2ccc(C(=O)N3CCN(c4ncccc4NC(C)C)CC3)nc2)c1O [Exam. 78],15%,58%,62%,52%,70%
"CC(C)Nc1cccnc1N1CCN(C(=O)c2ccc(C(=O)NCCN3CCOCC3)cn2)CC1 [Exam. 59, 2-[1-[3-(isopropylamino)-2-pyridyl]piperazin-4-yl-carbonyl]-5-[N-[2-(morpholin-4-yl)ethyl]carbamoyl]pyridine]",49%,60%,70%,15%,61%
"Nc1cccnc1N1CCN(C(=O)c2ccc(C(=O)NCc3ccccn3)cn2)CC1 [Exam. 75, 6-[1-(3-amino-2-pyridyl)piperazin-4-yl-carbonyl]-N-(2-pyridylmethyl)nicotinamide.HCl]",22%,54%,72%,53%,72%
"COCCN(CCOC)C(=O)c1ccc(C(=O)N2CCN(CCO)CC2)nc1 [Exam. 100, N,N-bis(2-methoxyethyl)-6-[1-(2-hydroxyethyl)piperazin-4-yl-carbonyl]nicotinamide.HCl]",20%,49%,77%,40%,64%
CC(C)CNc1cccnc1N1CCN(C(=O)c2ccc(C(=O)NCCO)cn2)CC1 [Exam. 22],54%,60%,86%,50%,60%
"COCCNC(=O)c1ccc(C(=O)N2CCN(c3ncccc3NCC(C)C)CC2)nc1 [Exam. 41, 2-[1-[3-(isobutylamino)-2-pyridyl]piperazin-4-yl-carbonyl]-5-[N-(2-methoxyethyl)carbamoyl]-pyridine]",52%,70%,85%,34%,55%
"CC(C)Nc1cccnc1N1CCN(C(=O)c2ccc(C(=O)NC(C)(C)C)cn2)CC1 [Exam. 28, 5-[N-(1,1-dimethylethyl)carbamoyl]-2-[1-[3-(isopropylamino)-2-pyridyl]piperazin-4-yl-carbonyl]pyridine]",61%,72%,88%,45%,55%
"Nc1cccnc1N1CCN(C(=O)c2ccc(C(=O)NC3CCOC3=O)cn2)CC1 (stereo not drawn) [Exam. 56, 2-[1-(3-amino-2-pyridyl)piperazin-4-yl-carbonyl]-5-[N-(tetrahydro-2-furanon-3-yl)carbamoyl]pyridine]",65%,70%,82%,45%,74%
